Each structure is given as a SMILES string.

This is an account of results in patent publication US10981911B2, “Imidazopyrrolopyridine as inhibitors of the JAK family of kinases” (Janssen Pharmaceutica NV, priority 2016, dated 2021).

Common to all, as to type: biochemical
The target of one assay is Tyk2-JH1JH2 (Homo sapiens (Human), UniProt P29597, C1142A/C936A). Briefly: Enzymatic inhibition assay (RapidFire HTMS), Tyk2. The note with it: 50 μM ATP, 200 μM substrate. A digest of the protocol: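 Compounds were tested in duplicate as 11-point 1:3 or 1:4 DMSO dilutions (≤0.25% DMSO final) in 20 μL reactions at 25 °C for 90 min, with Tyk2 pre-incubated 30 min with 2 mM ATP. Reactions were quenched with TFA plus internal standard peptide, and phosphorylated product was quantified by RapidFire C4 SPE–ESI MS.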

The next assay concerns the target JAK2-JH1JH2 (Homo sapiens (Human), UniProt O60674). Briefly: Enzymatic inhibition assay (RapidFire HTMS), JAK2. The note with it: 30 μM ATP, 40 μM substrate. In a few lines: (§1)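 Quenched with 0.5% TFA plus internal-standard peptide; phosphorylated product quantified by RapidFire C4 SPE–ESI-MS, 11-point 1:3 or 1:4 dilutions in duplicate.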
The target in a further assay is JAK1-JH1JH2 (Homo sapiens (Human), UniProt P23458). Put plainly: Enzymatic inhibition assay (RapidFire HTMS), JAK1. The note with it: 12.5 μM ATP, 200 μM substrate; read-out: JAK1-JH2JH1 IC50. A digest of the protocol: as §1
For a further assay, the target named is JAK3-JH1JH2 (Homo sapiens (Human), UniProt P52333). Put plainly: Enzymatic inhibition assay (RapidFire HTMS), JAK3. The note with it: 150 μM ATP, 40 μM substrate. In a few lines: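 Compounds tested in duplicate over 11-point 1:3 or 1:4 dilution series; no-enzyme wells as negative control. After 45 min at 25 °C, TFA quench with internal standard, and phosphorylated product quantified by RapidFire–QTrap mass spectrometry relative to the uninhibited reaction.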
Sequence of JAK3-JH1JH2 (P52333 512-1124): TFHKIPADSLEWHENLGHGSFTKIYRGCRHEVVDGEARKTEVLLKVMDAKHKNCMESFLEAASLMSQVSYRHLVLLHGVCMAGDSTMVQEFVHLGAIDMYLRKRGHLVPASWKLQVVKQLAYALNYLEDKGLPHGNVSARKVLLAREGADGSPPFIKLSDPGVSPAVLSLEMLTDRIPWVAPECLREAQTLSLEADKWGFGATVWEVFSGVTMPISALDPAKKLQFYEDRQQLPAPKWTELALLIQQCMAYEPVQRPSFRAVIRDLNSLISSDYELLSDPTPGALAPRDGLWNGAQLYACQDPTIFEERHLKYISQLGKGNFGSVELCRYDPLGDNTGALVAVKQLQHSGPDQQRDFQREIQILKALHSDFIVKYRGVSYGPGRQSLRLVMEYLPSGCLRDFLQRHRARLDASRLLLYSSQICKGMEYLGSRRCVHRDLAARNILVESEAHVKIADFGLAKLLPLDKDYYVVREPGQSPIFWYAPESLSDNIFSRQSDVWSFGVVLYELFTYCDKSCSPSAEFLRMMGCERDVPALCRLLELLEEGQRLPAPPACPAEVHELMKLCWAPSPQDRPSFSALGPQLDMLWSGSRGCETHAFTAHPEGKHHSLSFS

Sequence of JAK1-JH1JH2 (P23458 574-1154): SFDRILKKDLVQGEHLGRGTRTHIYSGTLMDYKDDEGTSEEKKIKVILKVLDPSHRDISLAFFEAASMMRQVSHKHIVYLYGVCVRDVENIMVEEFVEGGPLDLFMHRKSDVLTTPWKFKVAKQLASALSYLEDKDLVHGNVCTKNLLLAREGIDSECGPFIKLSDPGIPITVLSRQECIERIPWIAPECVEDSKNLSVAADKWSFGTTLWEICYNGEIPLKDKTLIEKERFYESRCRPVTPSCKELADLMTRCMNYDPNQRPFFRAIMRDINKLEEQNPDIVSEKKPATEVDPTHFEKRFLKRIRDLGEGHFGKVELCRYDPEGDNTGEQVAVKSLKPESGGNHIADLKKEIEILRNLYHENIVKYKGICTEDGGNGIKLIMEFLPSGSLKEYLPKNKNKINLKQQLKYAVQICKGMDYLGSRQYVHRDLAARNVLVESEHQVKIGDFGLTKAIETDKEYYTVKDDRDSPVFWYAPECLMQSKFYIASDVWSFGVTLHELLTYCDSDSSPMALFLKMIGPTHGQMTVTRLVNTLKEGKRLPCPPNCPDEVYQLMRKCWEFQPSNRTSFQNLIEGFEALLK
Sequence of JAK2-JH1JH2 (O60674 532-1132): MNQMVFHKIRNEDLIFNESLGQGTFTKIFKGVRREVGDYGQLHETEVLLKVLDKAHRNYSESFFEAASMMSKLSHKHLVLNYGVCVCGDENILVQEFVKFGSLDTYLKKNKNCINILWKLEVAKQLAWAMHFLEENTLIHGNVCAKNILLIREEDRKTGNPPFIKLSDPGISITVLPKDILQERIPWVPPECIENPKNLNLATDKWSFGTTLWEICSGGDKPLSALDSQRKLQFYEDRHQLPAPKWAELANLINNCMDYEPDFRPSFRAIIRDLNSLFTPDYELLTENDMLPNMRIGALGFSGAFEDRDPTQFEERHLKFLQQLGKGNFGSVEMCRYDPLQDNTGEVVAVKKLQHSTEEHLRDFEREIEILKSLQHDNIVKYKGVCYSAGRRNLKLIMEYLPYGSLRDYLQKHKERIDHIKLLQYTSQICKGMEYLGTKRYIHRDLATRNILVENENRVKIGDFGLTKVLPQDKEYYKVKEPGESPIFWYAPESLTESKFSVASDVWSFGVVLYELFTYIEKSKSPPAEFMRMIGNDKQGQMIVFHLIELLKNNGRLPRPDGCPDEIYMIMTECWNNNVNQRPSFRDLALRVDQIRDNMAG
Sequence of Tyk2-JH1JH2 (P29597 580-1182 C936A/C1142A): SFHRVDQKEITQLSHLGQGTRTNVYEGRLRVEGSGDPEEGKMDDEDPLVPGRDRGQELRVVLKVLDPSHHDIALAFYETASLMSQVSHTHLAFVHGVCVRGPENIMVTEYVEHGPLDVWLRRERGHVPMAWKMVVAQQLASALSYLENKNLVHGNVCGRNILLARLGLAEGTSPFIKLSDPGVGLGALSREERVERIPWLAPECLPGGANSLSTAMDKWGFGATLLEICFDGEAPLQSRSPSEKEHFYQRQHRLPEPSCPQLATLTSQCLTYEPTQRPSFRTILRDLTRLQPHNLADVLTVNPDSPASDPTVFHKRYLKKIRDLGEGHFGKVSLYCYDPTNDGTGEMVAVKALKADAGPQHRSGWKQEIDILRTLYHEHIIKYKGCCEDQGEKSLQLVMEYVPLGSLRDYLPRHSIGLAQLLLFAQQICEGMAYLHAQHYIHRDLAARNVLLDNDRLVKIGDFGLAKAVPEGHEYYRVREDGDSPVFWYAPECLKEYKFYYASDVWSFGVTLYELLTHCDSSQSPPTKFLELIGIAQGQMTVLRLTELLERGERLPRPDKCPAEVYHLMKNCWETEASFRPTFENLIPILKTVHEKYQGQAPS

For `N#CCc1ccc(NC(=O)Cc2nc3cnc4[nH]ccc4c3n2[C@H]2CC[C@H](CC#N)CC2)cc1` [Ex. 8, 2-(1-((1r,4r)-4-(Cyanomethyl)cyclohexyl)-1,6-dihydroimidazo[4,5-d]pyrrolo[2,3-b]pyridin-2-yl)-N-(4-(cyanomethyl)phenyl)acetamide], the IC50 against Tyk2-JH1JH2 was determined as 0.7 nM; at JAK2-JH1JH2, 0.5 nM; at JAK1-JH1JH2 it was 0.1 nM; against JAK3-JH1JH2 it was 12.9 nM.
The like results for `N#CC[C@H]1CC[C@H](n2c(CC(=O)N[C@H]3CC[C@H](CO)CC3)nc3cnc4[nH]ccc4c32)CC1` [Ex. 27, 2-(1-((1r,4r)-4-(Cyanomethyl)cyclohexyl)-1,6-dihydroimidazo[4,5-d]pyrrolo[2,3-b]pyridin-2-yl)-N-((1r,4r)-4-(hydroxymethyl)cyclohexyl)acetamide] were, in that order, 7.2 nM, 2.9 nM, 0.1 nM and 36.9 nM.
Take `COC(C)(C)CNC(=O)Cc1nc2cnc3[nH]ccc3c2n1[C@H]1CC[C@H](CC#N)CC1` [Ex. 71, 2-(1-((1r,4r)-4-(Cyanomethyl)cyclohexyl)-1,6-dihydroimidazo[4,5-d]pyrrolo[2,3-b]pyridin-2-yl)-N-(2-methoxy-2-methylpropyl)acetamide]: the IC50 against Tyk2-JH1JH2 stood at 3.3 nM; against JAK2-JH1JH2, 3.4 nM; on JAK1-JH1JH2, 0.2 nM; on JAK3-JH1JH2, 54.2 nM.
Taken in the same sequence, the figures for `N#CC[C@H]1CC[C@H](n2c(CC(=O)Nc3ccncc3)nc3cnc4[nH]ccc4c32)CC1` [Ex. 118, 2-(1-((1r,4r)-4-(Cyanomethyl)cyclohexyl)-1,6-dihydroimidazo[4,5-d]pyrrolo[2,3-b]pyridin-2-yl)-N-(pyridin-4-yl)acetamide] were 5.4 nM, 3.5 nM, 0.7 nM and 50.5 nM.
`CCOC(=O)N1CC(c2nc3cnc4[nH]ccc4c3n2[C@H]2CC[C@H](CC#N)CC2)C1` [Ex. 128, Ethyl 3-(1-((1r,4r)-4-(Cyanomethyl)cyclohexyl)-1,6-dihydroimidazo[4,5-d]pyrrolo[2,3-b]pyridin-2-yl)azetidine-1-carboxylate]: the IC50 came out at 64.4 nM against Tyk2-JH1JH2, 110 nM on JAK2-JH1JH2, 0.7 nM on JAK1-JH1JH2 and 1090 nM at JAK3-JH1JH2.
Taken in the same sequence, the figures for `[H]/N=C(\c1ccccc1)N(O)Cc1nc2cnc3[nH]ccc3c2n1[C@H]1CC[C@H](CC#N)CC1` [Ex. 17A, (E)-N-((1-((1r,4r)-4-(Cyanomethyl)cyclohexyl)-1,6-dihydroimidazo[4,5-d]pyrrolo[2,3-b]pyridin-2-yl)methyl)-N-hydroxybenzimidamide] were 1.4 nM, 1.2 nM, 0.1 nM and 65.8 nM.
In the case of `C#Cc1ccc(C(=O)c2ccc(CCc3nc4cnc5[nH]ccc5c4n3[C@H]3CC[C@H](CC#N)CC3)cc2)cc1` [Ex. 170, 2-((1r,4r)-4-(2-(4-(4-Ethynylbenzoyl)phenethyl)imidazo[4,5-d]pyrrolo[2,3-b]pyridin-1(6H)-yl)cyclohexyl)acetonitrile], the half-maximal inhibitory concentration (IC50) was 26.4 nM on Tyk2-JH1JH2, 80.9 nM on JAK2-JH1JH2, 1.5 nM at JAK1-JH1JH2 and over 12500 nM on JAK3-JH1JH2.
For `N#CC[C@H]1CC[C@H](n2c(CC(=O)Nc3ccc(C#N)cc3)nc3cnc4[nH]ccc4c32)CC1` [Ex. 200, 2-(1-((1r,4r)-4-(Cyanomethyl)cyclohexyl)-1,6-dihydroimidazo[4,5-d]pyrrolo[2,3-b]pyridin-2-yl)-N-(4-cyanophenyl)acetamide], the IC50 at Tyk2-JH1JH2 was 12.5 nM; against JAK2-JH1JH2, under 3.5 nM; on JAK1-JH1JH2, under 4 nM; against JAK3-JH1JH2, 13.7 nM.
The like results for `N#CC[C@H]1CC[C@H](n2c(CC(=O)NCc3ccc(OC(F)F)cc3)nc3cnc4[nH]ccc4c32)CC1` [Ex. 79, 2-(1-((1r,4r)-4-(cyanomethyl)cyclohexyl)-1,6-dihydroimidazo[4,5-d]pyrrolo[2,3-b]pyridin-2-yl)-N-(4-(difluoromethoxy)benzyl)acetamide] were, in that order, 13.3 nM, 10.6 nM, 0.4 nM and 223 nM.
Taken in the same sequence, the figures for `N#CC[C@H]1CC[C@H](n2c(CNC(=N)C34CC5CC(CC(C5)C3)C4)nc3cnc4[nH]ccc4c32)CC1` [Ex. 156, (3R,5R,7R)—N-((1-((1r,4r)-4-(Cyanomethyl)cyclohexyl)-1,6-dihydroimidazo[4,5-d]pyrrolo[2,3-b]pyridin-2-yl)methyl)adamantane-1-carboximidamide] were 2.9 nM, 33.6 nM, 1.3 nM and 1320 nM.
Taken in the same sequence, the figures for `N#CC[C@H]1CC[C@H](n2c(CC(=O)NCCOCCOCCN)nc3cnc4[nH]ccc4c32)CC1` [Ex. 193, N-(2-(2-(2-Aminoethoxy)ethoxy)ethyl)-2-(1-((1r,4r)-4-(cyanomethyl)cyclohexyl)-1,6-dihydroimidazo[4,5-d]pyrrolo[2,3-b]pyridin-2-yl)acetamide] were 5.3 nM, 10.1 nM, 0.2 nM and 69.5 nM.
In the case of `N#CC[C@H]1CC[C@H](n2c(C(=O)NCC3(O)COC3)nc3cnc4[nH]ccc4c32)CC1` [Ex. 80, 1-((1r,4r)-4-(Cyanomethyl)cyclohexyl)-N-((3-hydroxyoxetan-3-yl)methyl)-1,6-dihydroimidazo[4,5-d]pyrrolo[2,3-b]pyridine-2-carboxamide], the IC50 was found to be 4.1 nM against Tyk2-JH1JH2, 2.1 nM against JAK2-JH1JH2, 0.4 nM at JAK1-JH1JH2 and 89.7 nM on JAK3-JH1JH2.
As for `N#CC[C@H]1CC[C@H](n2c(CNC(=O)C3CCCCC3)nc3cnc4[nH]ccc4c32)CC1` [Ex. 139, N-((1-((1r,4r)-4-(Cyanomethyl)cyclohexyl)-1,6-dihydroimidazo[4,5-d]pyrrolo[2,3-b]pyridin-2-yl)methyl)cyclohexanecarboxamide], the concentration for half-maximal inhibition (IC50) was 53.5 nM against Tyk2-JH1JH2, 66.9 nM against JAK2-JH1JH2, 0.9 nM on JAK1-JH1JH2 and 746 nM at JAK3-JH1JH2.
The like results for `CC(C)NC(=O)NCc1nc2cnc3[nH]ccc3c2n1[C@H]1CC[C@H](CC#N)CC1` [Ex. 171, 1-((1-((1r,4r)-4-(Cyanomethyl)cyclohexyl)-1,6-dihydroimidazo[4,5-d]pyrrolo[2,3-b]pyridin-2-yl)methyl)-3-isopropylurea] were, in that order, 18.8 nM, 33.9 nM, 2 nM and 211 nM.
Take `N#CC[C@H]1CC[C@H](n2c(CC(=O)NCc3ccc(C#N)cc3)nc3cnc4[nH]ccc4c32)CC1` [Ex. 39, N-(4-Cyanobenzyl)-2-(1-((1r,4r)-4-(cyanomethyl)cyclohexyl)-1,6-dihydroimidazo[4,5-d]pyrrolo[2,3-b]pyridin-2-yl)acetamide]: the IC50 amounted to 10 nM against Tyk2-JH1JH2, 5.3 nM against JAK2-JH1JH2, 0.2 nM on JAK1-JH1JH2 and 142 nM against JAK3-JH1JH2.
Regarding `N#CC[C@H]1CC[C@H](n2c(-c3cnn(Cc4cocn4)c3)nc3cnc4[nH]ccc4c32)CC1` [Ex. 166, 2-((1r,4r)-4-(2-(1-(Oxazol-4-ylmethyl)-1H-pyrazol-4-yl)imidazo[4,5-d]pyrrolo[2,3-b]pyridin-1(6H)-yl)cyclohexyl)acetonitrile], the IC50 against Tyk2-JH1JH2 was 37.3 nM; on JAK2-JH1JH2, 17 nM; on JAK1-JH1JH2, 1.8 nM; on JAK3-JH1JH2, 144 nM.
For `N#CC[C@H]1CC[C@H](n2c(CC(=O)N3CCCCC3)nc3cnc4[nH]ccc4c32)CC1` [Ex. 90, 2-((1r,4r)-4-(2-(2-Oxo-2-(piperidin-1-yl)ethyl)imidazo[4,5-d]pyrrolo[2,3-b]pyridin-1(6H)-yl)cyclohexyl)acetonitrile], the IC50 is about 2.4 nM at Tyk2-JH1JH2, 8.1 nM on JAK2-JH1JH2, under 4 nM at JAK1-JH1JH2 and 85 nM on JAK3-JH1JH2.
Taken in the same sequence, the figures for `N#CC[C@H]1CC[C@H](n2c(C(=O)NC3CC3)nc3cnc4[nH]ccc4c32)CC1` [Ex. 175, 1-((1r,4r)-4-(Cyanomethyl)cyclohexyl)-N-cyclopropyl-1,6-dihydroimidazo[4,5-d]pyrrolo[2,3-b]pyridine-2-carboxamide] were 49.5 nM, 27.8 nM, 2.5 nM and 839 nM.
Consider `C#Cc1ccc(C(=O)c2ccc(COCc3nc4cnc5[nH]ccc5c4n3[C@H]3CC[C@H](CC#N)CC3)cc2)cc1` [Ex. 126, 2-((1r,4r)-4-(2-(((4-(4-Ethynylbenzoyl)benzyl)oxy)methyl)imidazo[4,5-d]pyrrolo[2,3-b]pyridin-1(6H)-yl)cyclohexyl)acetonitrile], for which the IC50 at Tyk2-JH1JH2 amounted to 14.2 nM; against JAK2-JH1JH2, 19.4 nM; on JAK1-JH1JH2, 0.7 nM; at JAK3-JH1JH2, 317 nM.
The like results for `N#CC[C@H]1CC[C@H](n2c(CC(=O)NCC(O)CO)nc3cnc4[nH]ccc4c32)CC1` (some centres unmarked) [Ex. 106, 2-(1-((1r,4r)-4-(Cyanomethyl)cyclohexyl)-1,6-dihydroimidazo[4,5-d]pyrrolo[2,3-b]pyridin-2-yl)-N-(2,3-dihydroxypropyl)acetamide] were, in that order, 11.2 nM, 14.3 nM, 0.6 nM and 149 nM.
